For this test, the target named is T1, soluble epoxide hydrolase (sEH) (Homo sapiens, UniProt P34913).
T1 construct: purchased Cayman 10011669
T1 sequence (P34913 1-555): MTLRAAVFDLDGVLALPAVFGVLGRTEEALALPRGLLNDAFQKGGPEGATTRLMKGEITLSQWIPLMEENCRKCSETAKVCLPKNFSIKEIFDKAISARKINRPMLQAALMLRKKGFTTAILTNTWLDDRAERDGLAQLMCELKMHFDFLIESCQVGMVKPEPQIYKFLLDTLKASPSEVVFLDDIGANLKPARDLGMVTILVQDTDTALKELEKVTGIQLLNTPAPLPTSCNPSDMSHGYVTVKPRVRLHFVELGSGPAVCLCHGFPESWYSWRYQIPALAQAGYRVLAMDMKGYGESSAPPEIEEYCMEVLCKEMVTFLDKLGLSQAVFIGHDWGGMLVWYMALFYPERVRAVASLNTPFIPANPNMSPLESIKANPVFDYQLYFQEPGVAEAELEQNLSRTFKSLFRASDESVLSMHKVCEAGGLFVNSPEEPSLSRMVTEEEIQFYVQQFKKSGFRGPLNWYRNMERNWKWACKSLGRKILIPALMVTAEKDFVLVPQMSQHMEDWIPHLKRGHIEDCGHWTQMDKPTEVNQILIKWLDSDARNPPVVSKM
The test can be described thus: sEH inhibition assay (PHOME fluorescent substrate). Type of test: biochemical. The note with it: 37 °C, mean ± SEM; for inhibition at 100 µM: 100 μM compound, after 40 min, read-out: Inhibition of compounds on sEH, 100 μM (%); for IC50: tested three times, read-out: Inhibition of compounds on sEH, IC50. As for the experimental part:
The sEH assay was performed as described previously, with minor modifications. For determining inhibitory activity, 130 µL of ∼83 µg/mL sEH in 25 mM bis-Tris–HCl buffer (pH 7.0) containing 0.1% BSA was added to either 20 µL of inhibitor dissolved in MeOH, or MeOH. Next, 50 µL of the 10 µM substrate (PHOME) was added to each mixture and incubated at 37 °C to allow for sEH hydrolysis.
Inhibitory activity was calculated using the following equations: (1) Inhibitoryactivityrate(%)=[(ΔC–ΔI)/ΔC]×100 where ΔC and ΔI are the intensity of the control and inhibitor, respectively, after 40 min. (2) y=y0+(a×x/b+x) where y0 is the minimum value of the y-axis, a is the difference between the maximum and minimum values, and b is the x value at 50% of the a value.
The results were analysed using Sigma Plot (Systat Software Inc., San Jose, CS).

A value given as a limit tells only on which side of the number the result lay.

What is called inhibition is the share of the control response that was lost under treatment. The IC50 is the point on the concentration scale where inhibition reaches its midpoint.

`O=C1OC2Cc3c(O)cc(OC4OCC(O)(CO)C4O)cc3OC2c2ccc(O)c(O)c21` [Compound 1, (6aS,12aR)-3,4,8-trihydroxy-6a-7-dihydroisochromeno[4,3-b]chromen-5(12aH)-one-10-O-β-apiofuranoside]: the inhibition at 100 µM was found to be 59.4 ± 2.5% and the IC50 is 14.5 ± 0.5 µM.
With `O=C1CC(c2ccccc2)Oc2cc(O)c(C3OC(CO)C(O)C(O)C3O)c(O)c21` [Compound 2, pinocembrin 6-C-β-D-glucoside], the inhibition at 100 µM was 91.8 ± 4.5% and the IC50 amounted to 11.4 ± 2.3 µM.
As for `O=C1CC(c2ccc(O)cc2)Oc2cc(O)c(C3OC(CO)C(O)C(O)C3O)c(O)c21` [Compound 3, naringenin-6-C-β-D-glucopyranoside], the inhibition at 100 µM was less than 38%.
Consider `OCc1ccc(O)cn1` [Compound 4, 6-hydroxymethyl-3-pyridinol], for which the inhibition at 100 µM worked out at 65.9 ± 0.8% and the IC50 is 26.3 ± 4.5 µM.
As to `Oc1cc(O)c2c(c1)O[C@H](c1ccc(O)c(O)c1)[C@@H](O)C2` [Compound 5, (+)-catechin], the inhibition at 100 µM is less than 38%.
For `OCC1(O)COC(Oc2cc(O)c3c(c2)OC(c2ccc(O)c(O)c2)C(O)C3)C1O` (stereo not drawn) [Compound 6, catechin-7-O-β-apiofuranoside], the inhibition at 100 µM came out at 69.8 ± 2.2% and the IC50 was 16 ± 3.2 µM.
For `COc1cc(C2Oc3c(OC)cc(CCCO)cc3C2CO)ccc1OC1OC(C)C(O)C(O)C1O` (centres unmarked) [Compound 7, icariside E4] the same measures were 55.6 ± 0.7% and 23 ± 0.7 µM.
Turning to `COc1cc(C2Oc3c(OC)cc(CCCO)cc3C2CO[C@@H]2OC[C@@H](O)[C@H](O)[C@H]2O)ccc1O` (stereo partly drawn) [Compound 8, 2,3-dihydro-2–(4-hydroxy-3-methoxyphenyl)-5–(3-hydroxypropyl)-7-methoxy-3-benzofuranylmethyl β-D-xylopyranoside], the inhibition at 100 µM worked out at 64.8 ± 1.4% and the IC50 turned out to be 36.9 ± 2.6 µM.
For the molecule `O=C(O)c1ccc(O)c(O)c1` [Compound 9, protocatechuic acid], the inhibition at 100 µM is less than 38%.
Consider `O=C1c2c(O)cc(O)cc2OC(c2cc(O)cc(O)c2)C1O` (centres unmarked) [Compound 10, 3,5,7-trihydroxy-2–(3,5-dihydroxyphenyl) chroman-4-one], for which the inhibition at 100 µM was found to be 70.7 ± 0.4% and the IC50 worked out at 16.1 ± 3.2 µM.
